How the values were obtained:
[1] = system: rats with ligated L5 and L6 spinal nerves; assay: Alleviation of chronic pain: tactile allodynia after L5/L6 spinal nerve ligation (von Frey hairs); type: in vivo, rat; settings: 30 minutes after administration, ±SEM
Description: A model for chronic pain (in particular peripheral neuropathy such as causalgia) involves the surgical ligation of the L5 (and optionally the L6) spinal nerves on one side in experimental animals. Rats recovering from the surgery gain weight and display a level of general activity similar to that of normal rats. However, these rats develop abnormalities of the foot, wherein the hindpaw is moderately everted and the toes are held together. More importantly, the hindpaw on the side affected by the surgery appears to become sensitive to pain from low-threshold mechanical stimuli, such as that producing a faint sensation of touch in a human, within about 1 week following surgery. This sensitivity to normally non-painful touch is called “tactile allodynia” and lasts for at least two months. The response includes lifting the affected hindpaw to escape from the stimulus, licking the paw and holding it in the air for many seconds. None of these responses is normally seen in the control group.
Rats are anesthetized before surgery. The surgical site is shaved and prepared either with betadine or Novacaine. Incision is made from the thoracic vertebra XIII down toward the sacrum. Muscle tissue is separated from the spinal vertebra (left side) at the L4-S2 levels. The L6 vertebra is located and the transyerse process is carefully removed with a small rongeur to expose the L4-L6 spinal nerves. The L5 and L6 spinal nerves are isolated and tightly ligated with 6-0 silk thread. The same procedure is done on the right side as a control, except no ligation of the spinal nerves is performed. A complete hemostasis is confirmed, then the wounds are sutured. A small amount of antibiotic ointment is applied to the incised area, and the rat is transferred to the recovery plastic cage under a regulated heat-temperature lamp. On the day of the experiment, at least seven days after the surgery, typically six rats per test group are administered the test drugs by intraperitoneal (i.p.) injection or oral gavage. For i.p. injection, the compounds are formulated in approximately 10 to 50% DMSO and given in a volume of 1 ml/kg body weight.
Tactile allodynia is measured prior to and 30 minutes after drug administration using von Frey hairs that are a series of fine hairs with incremental differences in stiffness. Rats are placed in a plastic cage with a wire mesh bottom and allowed to acclimate for approximately 30 minutes. The von Frey hairs are applied perpendicularly through the mesh to the mid-plantar region of the rats' hindpaw with sufficient force to cause slight buckling and held for 6-8 seconds. The applied force has been calculated to range from 0.41 to 15.1 grams. If the paw is sharply withdrawn, it is considered a positive response. A normal animal will not respond to stimuli in this range, but a surgically ligated paw will be withdrawn in response to a 1-2 gram hair. The 50% paw withdrawal threshold is determined using the method of Dixon, […]. The post-drug threshold is compared to the pre-drug threshold and the percent reversal of tactile sensitivity is calculated based on a normal threshold of 15.1 grams. The results are expressed in per cent (%) MPE, where the MPE value reflects the percentage reversal of pain threshold to that of a normal animal (100%). Table 4 below indicates results of this test with Compounds 8, 34 and 40 of the invention, administered i.p., in intrathecal and oral doses.

male Sprague-Dawley rats = assay: Sedative activity (exploratory behavior after i.p. injection); type: in vivo; settings: rat, intraperitoneally, up to a dose of 300 μg/kg
Procedure: To test sedation, six male Sprague-Dawley rats are given up to 3 mg/kg of the test compound in a saline or DMSO vehicle by intraperitoneal injection (i.p.). Sedation is graded 30 minutes following administration of the drug by monitoring locomotor skills as follows.
The Sprague-Dawley rats are weighed and 1 ml/kg body weight of an appropriate concentration (ie. 3 mg/ml for a final dose of 3 mg/kg) drug solution is injected intraperitoneally. Typically the test compound is formulated in approximately 10 to 50% DMSO. The results are compared to controls that are injected with 1 ml/kg saline or 10 to 50% DMSO. Rat activity is then determined 30 minutes after injection of the drug solution. Rats are placed in a dark covered chamber and a digicom analyzer (Omnitech Electronic) quantitates their exploratory behavior for a five-minute period. The machine records each time the rat interrupts an array of 32 photoelectric beams in the X and Y orientation.

alpha2B receptor = biological target: T1, alpha2B receptor (Homo sapiens, UniProt P18089); assay: Receptor Selection and Amplification Technology (RSAT) assay, alpha2B; type: cell-based; settings: NIH-3T3 cells; for EC50: NA = not active at concentrations less than 10 micromolar, read-out: RSAT EC50 (nM) Alpha 2B; for fraction of activity of the standard (brimonidine) attained, Alpha 2B (number in parenthesis): ratio of maximal effect to that of standard full agonist brimonidine
T1 construct: expressed in transfected cells; host or cells: NIH-3T3
T1 sequence (P18089 1-450): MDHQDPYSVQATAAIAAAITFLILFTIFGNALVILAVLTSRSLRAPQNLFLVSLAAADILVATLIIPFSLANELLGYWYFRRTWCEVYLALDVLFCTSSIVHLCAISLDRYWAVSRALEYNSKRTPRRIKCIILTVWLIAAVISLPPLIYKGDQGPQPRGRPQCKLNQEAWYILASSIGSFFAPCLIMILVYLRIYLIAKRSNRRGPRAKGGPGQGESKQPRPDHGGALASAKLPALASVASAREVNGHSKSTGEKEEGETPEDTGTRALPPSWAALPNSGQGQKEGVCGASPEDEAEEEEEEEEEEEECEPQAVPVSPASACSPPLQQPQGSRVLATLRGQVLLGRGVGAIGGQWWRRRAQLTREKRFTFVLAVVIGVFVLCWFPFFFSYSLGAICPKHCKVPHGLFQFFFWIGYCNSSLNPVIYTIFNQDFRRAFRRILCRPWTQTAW
Description: (§1) The compounds of the invention are agonists of α2 adrenergic receptors, particularly they tend to be specific or selective agonists of α2B and/or to a lesser extent α2C adrenergic receptors, in preference over α2A adrenergic receptors. […] Al., 1995, Pharmacol. Toxicol. 76, pp. 308-311 (incorporated herein by reference) and is also described below. Another reference pertinent to this assay is Conklin et al. (1993) Nature 363:274-6, also incorporated herein by reference.
(§2) The RSAT assay measures a receptor-mediated loss of contact inhibition that results in selective proliferation of receptor-containing cells in a mixed population of confluent cells. The increase in cell number is assessed with an appropriate transfected marker gene such as β-galactosidase, the activity of which can be easily measured in a 96-well format. Receptors that activate the G protein, Gq, elicit this response. Alpha2 receptors, which normally couple to Gi, activate the RSAT response when coexpressed with a hybrid Gq protein that has a Gi receptor recognition domain, called Gq/i5^2.
(§3) NIH-3T3 cells are plated at a density of 2×10^6 cells in 15 cm dishes and maintained in Dulbecco's modified Eagle's medium supplemented with 10% calf serum. One day later, cells are cotransfected by calcium phosphate precipitation with mammalian expression plasmids encoding p-SV-β-galactosidase (5-10 μg), receptor (1-2 μg) and G protein (1-2 μg). 40 μg salmon sperm DNA may also be included in the transfection mixture. Fresh media is added on the following day and 1-2 days later, cells are harvested and frozen in 50 assay aliquots. Cells are thawed and 100 μl added to 100 μl aliquots of various concentrations of drugs in triplicate in 96-well dishes. Incubations continue 72-96 hr at 37°. After washing with phosphate-buffered saline, β-galactosidase enzyme activity is determined by adding 200 μl of the chromogenic substrate (consisting of 3.5 mM o-nitrophenyl-β-D-galactopyranoside and 0.5% nonidet P-40 in phosphate buffered saline), incubating overnight at 30 and measuring optical density at 420 nm. The absorbance is a measure of enzyme activity, which depends on cell number and reflects a receptor-mediated cell proliferation. The EC50 and maximal effect of each drug at each alpha2 receptor is determined. The efficacy or intrinsic activity is calculated as a ratio of the maximal effect of the drug to the maximal effect of a standard full agonist for each receptor subtype. Brimonidine, also called […], the chemical structure of which is shown below, is used as the standard agonist for the alpha2A, alpha2B and alpha2C receptors. [drawing 6]
(§4) The results of the RSAT assay with several exemplary compounds of the invention are disclosed in Table 3. […] NA stands for “not active” at concentrations less than 10 micromolar. As is known EC50 is the concentration at which half of a given compound's maximal activity is observed. It can be seen from the table that the compounds of the invention are specific or selective agonists of α2B and/or α2C adrenergic receptors, with no agonist like activity or only with insignificant agonist-like activity on α2A receptors.

alpha2A receptor = biological target: T2, alpha2A receptor (Homo sapiens, UniProt P08913); assay: Receptor Selection and Amplification Technology (RSAT) assay, alpha2A; type: cell-based; settings: NIH-3T3 cells; for EC50: NA = not active at concentrations less than 10 micromolar, read-out: RSAT EC50 (nM) Alpha 2A; for fraction of activity of the standard (brimonidine) attained, Alpha 2A (number in parenthesis): ratio of maximal effect to that of standard full agonist brimonidine
T2 construct: expressed in transfected cells; host or cells: NIH-3T3
T2 sequence (P08913 1-465): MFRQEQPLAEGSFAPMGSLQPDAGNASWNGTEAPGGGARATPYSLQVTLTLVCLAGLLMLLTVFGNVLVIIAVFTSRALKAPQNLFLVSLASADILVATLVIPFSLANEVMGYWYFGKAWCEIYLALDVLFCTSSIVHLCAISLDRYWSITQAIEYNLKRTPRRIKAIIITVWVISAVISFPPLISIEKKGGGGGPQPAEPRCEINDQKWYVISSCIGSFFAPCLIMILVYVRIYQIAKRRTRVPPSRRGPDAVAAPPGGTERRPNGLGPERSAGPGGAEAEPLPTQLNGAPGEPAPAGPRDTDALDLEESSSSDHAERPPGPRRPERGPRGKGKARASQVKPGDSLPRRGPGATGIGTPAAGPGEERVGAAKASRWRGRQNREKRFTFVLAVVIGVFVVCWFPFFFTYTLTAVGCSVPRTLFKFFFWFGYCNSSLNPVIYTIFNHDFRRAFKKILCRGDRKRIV
Description: as §1, §2, §3
The results of the RSAT assay with several exemplary compounds of the invention are disclosed in Table 3. […] NA stands for “not active” at concentrations less than 10 micromolar. […]

alpha2C receptor = biological target: T3, alpha2C receptor (Homo sapiens, UniProt P18825); assay: Receptor Selection and Amplification Technology (RSAT) assay, alpha2C; type: cell-based; settings: NIH-3T3 cells; for EC50: NA = not active at concentrations less than 10 micromolar, read-out: RSAT EC50 (nM) Alpha 2C; for fraction of activity of the standard (brimonidine) attained, Alpha 2C (number in parenthesis): ratio of maximal effect to that of standard full agonist brimonidine
T3 construct: expressed in transfected cells; host or cells: NIH-3T3
T3 sequence (P18825 1-462): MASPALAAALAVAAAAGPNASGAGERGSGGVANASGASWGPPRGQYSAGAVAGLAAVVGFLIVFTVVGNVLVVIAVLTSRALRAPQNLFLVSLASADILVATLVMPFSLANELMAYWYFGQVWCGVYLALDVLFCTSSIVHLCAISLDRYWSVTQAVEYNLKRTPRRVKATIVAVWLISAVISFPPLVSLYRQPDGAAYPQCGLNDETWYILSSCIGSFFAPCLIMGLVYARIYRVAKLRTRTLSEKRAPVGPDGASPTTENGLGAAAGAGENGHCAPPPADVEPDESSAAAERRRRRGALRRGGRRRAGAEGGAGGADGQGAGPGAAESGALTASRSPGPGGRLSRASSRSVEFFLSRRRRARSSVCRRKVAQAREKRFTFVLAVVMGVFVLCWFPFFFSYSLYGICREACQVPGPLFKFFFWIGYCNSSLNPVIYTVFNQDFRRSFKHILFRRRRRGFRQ
Description: as §1, §2, §3, §4

Compound | % MPE ([1]; IP dose 10 μg/kg) [% MPE] | % MPE ([1]; IP dose 30 μg/kg) [% MPE] | % MPE ([1]; IP dose 100 μg/kg) [% MPE] | % MPE ([1]; IP dose 300 μg/kg) [% MPE] | % MPE ([1]; IP dose 1000 μg/kg) [% MPE] | % MPE ([1]; IP dose 3000 μg/kg) [% MPE] | % MPE ([1]; Oral dose 1000 μg/kg) [% MPE] | sedative effect (male Sprague-Dawley rats) | EC50 (alpha2B receptor) [nM] | fraction of activity of the standard (brimonidine) attained, Alpha 2B (number in parenthesis) (alpha2B receptor) | EC50 (alpha2A receptor) [nM] | fraction of activity of the standard (brimonidine) attained, Alpha 2A (number in parenthesis) (alpha2A receptor) | EC50 (alpha2C receptor) [nM] | fraction of activity of the standard (brimonidine) attained, Alpha 2C (number in parenthesis) (alpha2C receptor)
C[C@H]1CC[C@H](NC(=S)NCCO)CC1 [Compound 40, 1-(2-Hydroxy-ethyl)-3-(4-methyl-cyclohexyl)-thiourea] | 0.1 ± 1.8 | 42 ± 9.2 | 46 ± 7.1 | 77 ± 8.0 | 83 ± 7.0 | 90 ± 6.1 | 80 ± 6.1 | no sedative effect | 57 | (0.62) |  |  |  | 
CC1=C(C)C(NC(=S)NCCO)CC1 (stereo not shown) [Compound 15, 1-(2,3-Dimethyl-cyclopent-2-enyl)-3-(2-hydroxy-ethyl)-thiourea] |  |  |  |  |  |  |  |  | 5 | (1.08) | 515 | (0.4) | 197 | (0.4)
CC[C@H]1CCCC[C@@H]1NC(=S)NCCO (relative stereo) [Compound 37, 1-(trans-2-Ethyl-cyclohexyl)-3-(2-hydroxy-ethyl)-thiourea] |  |  |  |  |  |  |  |  | 2 | (0.93) | 14 | (0.4) | 106 | (0.4)

Reference: patent US6534542B2, “(2-hydroxy)ethyl-thioureas useful as modulators of α2B adrenergic receptors” (Allergen Sales, Inc., priority 2001, dated 2003)
